Measured values as given in patent publication US10131657B2, “Bromodomain inhibitors” (AbbVie Inc., priority 2013, dated 2018).

test system: breast cancer cell line MX-1; assay: MX-1 cell line proliferation assay, Method A; assay type: cell-based; conditions: Homo sapiens, MX1; MX-1 cells, 96-well, 72 hours, Cell Titer Glo; read-out: Cellular proliferation: EC50 Method A
Protocol: The impact of compounds of the Examples on cancer cell proliferation was determined using the breast cancer cell line MX-1 (ATCC) in a 3-day proliferation assay and the data are reported in Table 1.
MX-1 cells were maintained in RPMI 1640 medium (Sigma) supplemented with 10% FBS at 37° C. and an atmosphere of 5% CO2. For compound testing, MX-1 cells were plated in 96-well black bottom plates at a density of 5000 cells/well in 90 μL of culture media and incubated at 370 overnight to allow cell adhesion and spreading. Compound dilution series were prepared in DMSO via a 3-fold serial dilution from 3 mM to 0.1 μM. The DMSO dilution series were then diluted 1:100 in phosphate buffered saline, and 10 μL of the resulted solution were added to the appropriate wells of the MX-1 cell plate. The final compound concentrations in the wells were 3, 1, 0.3, 0.1, 0.03, 0.01, 0.003, 0.001, 0.0003 and 0.0001 μM.
Luminescence readings from the Cell Titer Glo assay were normalized to the DMSO treated cells and analyzed using the GraphPad Prism software with sigmoidal curve fitting to obtain ECs50s. The minimum significant ratio (MSR) was determined to evaluate assay reproducibility (Eastwood et al., (2006) J Biomol Screen, 11: 253-261).

| SMILES | EC50 [nM] |
| --- | --- |
| Cn1cc(-c2cc(S(C)(=O)=O)ccc2Oc2cccc(NCC3CCCO3)c2)c2cc[nH]c2c1=O (stereo not drawn) [Example 65, 6-methyl-4-[5-(methylsulfonyl)-2-{3-[(tetrahydrofuran-2-ylmethyl)amino]phenoxy}phenyl]-1,6-dihydro-7H-pyrrolo[2,3-c]pyridin-7-one] | 40 |
| CCS(=O)(=O)c1ccc(Oc2ccc(Cl)cc2C#CCN2CCOCC2)c(-c2cn(C)c(=O)c3[nH]ccc23)c1 [Example 82, 4-[2-{4-chloro-2-[3-(morpholin-4-yl)prop-1-yn-1-yl]phenoxy}-5-(ethylsulfonyl)phenyl]-6-methyl-1,6-dihydro-7H-pyrrolo[2,3-c]pyridin-7-one] | 221 |
| CCS(=O)(=O)c1ccc(Oc2ccc(Cl)cc2CCCN2CCOCC2)c(-c2cn(C)c(=O)c3[nH]ccc23)c1 [Example 83, 4-[2-{4-chloro-2-[3-(morpholin-4-yl)propyl]phenoxy}-5-(ethylsulfonyl)phenyl]-6-methyl-1,6-dihydro-7H-pyrrolo[2,3-c]pyridin-7-one] | 89.9 |
| Cn1cc(-c2cc(S(C)(=O)=O)ccc2NC2CCN(S(=O)(=O)c3ccccc3)CC2)c2cc[nH]c2c1=O [Example 84, 6-methyl-4-[5-(methylsulfonyl)-2-{[1-(phenylsulfonyl)piperidin-4-yl]amino}phenyl]-1,6-dihydro-7H-pyrrolo[2,3-c]pyridin-7-one] | 87.8 |
| CN(C)CC(=O)N1CCC(Nc2ccc(S(C)(=O)=O)cc2-c2cn(C)c(=O)c3[nH]ccc23)CC1 [Example 85, 4-[2-({1-[(dimethylamino)acetyl]piperidin-4-yl}amino)-5-(methylsulfonyl)phenyl]-6-methyl-1,6-dihydro-7H-pyrrolo[2,3-c]pyridin-7-one] | > 1000 |
| CC(=O)Nc1ccc(CN2CCC(Nc3ccc(S(C)(=O)=O)cc3-c3cn(C)c(=O)c4[nH]ccc34)CC2)cc1 [Example 87, N-{4-[(4-{[2-(6-methyl-7-oxo-6,7-dihydro-1H-pyrrolo[2,3-c]pyridin-4-yl)-4-(methylsulfonyl)phenyl]amino}piperidin-1-yl)methyl]phenyl}acetamide] | 325 |
| CN1CCN(CC(=O)N2CCC(Nc3ccc(S(C)(=O)=O)cc3-c3cn(C)c(=O)c4[nH]ccc34)CC2)CC1 [Example 96, 6-methyl-4-[2-({1-[(4-methylpiperazin-1-yl)acetyl]piperidin-4-yl}amino)-5-(methylsulfonyl)phenyl]-1,6-dihydro-7H-pyrrolo[2,3-c]pyridin-7-one] | > 1000 |
| Cn1cc(-c2cc(S(C)(=O)=O)ccc2NC2CCN(S(=O)(=O)Cc3ccccc3)CC2)c2cc[nH]c2c1=O [Example 101, 4-[2-{[1-(benzylsulfonyl)piperidin-4-yl]amino}-5-(methylsulfonyl)phenyl]-6-methyl-1,6-dihydro-7H-pyrrolo[2,3-c]pyridin-7-one] | 72.9 |
| COc1ccc(S(=O)(=O)N2CCC(Nc3ccc(S(C)(=O)=O)cc3-c3cn(C)c(=O)c4[nH]ccc34)CC2)cc1 [Example 104, 4-[2-({1-[(4-methoxyphenyl)sulfonyl]piperidin-4-yl}amino)-5-(methylsulfonyl)phenyl]-6-methyl-1,6-dihydro-7H-pyrrolo[2,3-c]pyridin-7-one] | 176 |
| Cn1cc(-c2cc(S(C)(=O)=O)ccc2N[C@H]2CC[C@H](NCc3cccs3)CC2)c2cc[nH]c2c1=O [Example 107, 6-methyl-4-[5-(methylsulfonyl)-2-({trans-4-[(thiophen-2-ylmethyl)amino]cyclohexyl}amino)phenyl]-1,6-dihydro-7H-pyrrolo[2,3-c]pyridin-7-one] | 23.5 |
| CC(=O)Nc1ccc(CN[C@H]2CC[C@H](Nc3ccc(S(C)(=O)=O)cc3-c3cn(C)c(=O)c4[nH]ccc34)CC2)cc1 [Example 108, N-(4-{[(trans-4-{[2-(6-methyl-7-oxo-6,7-dihydro-1H-pyrrolo[2,3-c]pyridin-4-yl)-4-(methylsulfonyl)phenyl]amino}cyclohexyl)amino]methyl}phenyl)acetamide] | 299 |
| Cn1cc(-c2cc(S(C)(=O)=O)ccc2N[C@H]2CC[C@H](NCc3ccc(F)cc3F)CC2)c2cc[nH]c2c1=O [Example 109, 4-[2-({trans-4-[(2,4-difluorobenzyl)amino]cyclohexyl}amino)-5-(methylsulfonyl)phenyl]-6-methyl-1,6-dihydro-7H-pyrrolo[2,3-c]pyridin-7-one] | 18.1 |
| Cn1cc(-c2cc(S(C)(=O)=O)ccc2N[C@H]2CC[C@H](NCc3ccc4ccccc4c3)CC2)c2cc[nH]c2c1=O [Example 110, 6-methyl-4-[5-(methylsulfonyl)-2-({trans-4-[(naphthalen-2-ylmethyl)amino]cyclohexyl}amino)phenyl]-1,6-dihydro-7H-pyrrolo[2,3-c]pyridin-7-one] | 10.4 |

The next lines start with the values.

| EC50 [nM] | SMILES |
| --- | --- |
| 152 | Cn1cc(-c2cc(S(C)(=O)=O)ccc2Oc2cccc(NS(=O)(=O)c3ccc(F)cc3Cl)c2)c2cc[nH]c2c1=O [Example 58] |
| 64.1 | Cn1cc(-c2cc(S(C)(=O)=O)ccc2Oc2cccc(NCc3cccc(C#N)c3)c2)c2cc[nH]c2c1=O [Example 60, 3-[({3-[2-(6-methyl-7-oxo-6,7-dihydro-1H-pyrrolo[2,3-c]pyridin-4-yl)-4-(methylsulfonyl)phenoxy]phenyl}amino)methyl]benzonitrile] |
| 43 | Cn1cc(-c2cc(S(C)(=O)=O)ccc2Oc2cccc(NCc3ccc(C#N)cc3)c2)c2cc[nH]c2c1=O [Example 61, 4-[({3-[2-(6-methyl-7-oxo-6,7-dihydro-1H-pyrrolo[2,3-c]pyridin-4-yl)-4-(methylsulfonyl)phenoxy]phenyl}amino)methyl]benzonitrile] |
| 51.1 | Cn1cc(-c2cc(S(C)(=O)=O)ccc2Oc2cccc(NCc3ccc(F)cc3)c2)c2cc[nH]c2c1=O [Example 62, 4-[2-{3-[(4-fluorobenzyl)amino]phenoxy}-5-(methylsulfonyl)phenyl]-6-methyl-1,6-dihydro-7H-pyrrolo[2,3-c]pyridin-7-one] |
| 52.6 | COCCNc1cccc(Oc2ccc(S(C)(=O)=O)cc2-c2cn(C)c(=O)c3[nH]ccc23)c1 [Example 64, 4-[2-{3-[(2-methoxyethyl)amino]phenoxy}-5-(methylsulfonyl)phenyl]-6-methyl-1,6-dihydro-7H-pyrrolo[2,3-c]pyridin-7-one] |
| 54.7 | COc1cccc(CNc2cccc(Oc3ccc(S(C)(=O)=O)cc3-c3cn(C)c(=O)c4[nH]ccc34)c2)c1 [Example 66, 4-[2-{3-[(3-methoxybenzyl)amino]phenoxy}-5-(methylsulfonyl)phenyl]-6-methyl-1,6-dihydro-7H-pyrrolo[2,3-c]pyridin-7-one] |
| 50.6 | Cn1cc(-c2cc(S(C)(=O)=O)ccc2Oc2cccc(NCc3ccccc3F)c2)c2cc[nH]c2c1=O [Example 67, 4-[2-{3-[(2-fluorobenzyl)amino]phenoxy}-5-(methylsulfonyl)phenyl]-6-methyl-1,6-dihydro-7H-pyrrolo[2,3-c]pyridin-7-one] |
| 93.3 | Cn1cc(-c2cc(S(C)(=O)=O)ccc2Oc2cccc(NCc3cccc(OC(F)(F)F)c3)c2)c2cc[nH]c2c1=O [Example 69, 6-methyl-4-[5-(methylsulfonyl)-2-(3-{[3-(trifluoromethoxy)benzyl]amino}phenoxy)phenyl]-1,6-dihydro-7H-pyrrolo[2,3-c]pyridin-7-one] |
| 62.4 | Cn1cc(-c2cc(S(C)(=O)=O)ccc2Oc2cccc(NCc3cc(F)cc(F)c3)c2)c2cc[nH]c2c1=O [Example 73, 4-[2-{3-[(3,5-difluorobenzyl)amino]phenoxy}-5-(methylsulfonyl)phenyl]-6-methyl-1,6-dihydro-7H-pyrrolo[2,3-c]pyridin-7-one] |
| 45.1 | CN(C)CCCOc1ccc(CNc2cccc(Oc3ccc(S(C)(=O)=O)cc3-c3cn(C)c(=O)c4[nH]ccc34)c2)cc1 [Example 74, 4-{2-[3-({4-[3-(dimethylamino)propoxy]benzyl}amino)phenoxy]-5-(methylsulfonyl)phenyl}-6-methyl-1,6-dihydro-7H-pyrrolo[2,3-c]pyridin-7-one] |
| 112 | CN(C)c1cccc(CNc2cccc(Oc3ccc(S(C)(=O)=O)cc3-c3cn(C)c(=O)c4[nH]ccc34)c2)c1 [Example 75, 4-[2-(3-{[3-(dimethylamino)benzyl]amino}phenoxy)-5-(methylsulfonyl)phenyl]-6-methyl-1,6-dihydro-7H-pyrrolo[2,3-c]pyridin-7-one] |
| 49.9 | Cn1cc(-c2cc(S(C)(=O)=O)ccc2Oc2cccc(NCc3ccc4c(c3)OCCO4)c2)c2cc[nH]c2c1=O [Example 76, 4-[2-{3-[(2,3-dihydro-1,4-benzodioxin-6-ylmethyl)amino]phenoxy}-5-(methylsulfonyl)phenyl]-6-methyl-1,6-dihydro-7H-pyrrolo[2,3-c]pyridin-7-one] |
| 69.2 | Cn1cc(-c2cc(S(C)(=O)=O)ccc2Oc2cccc(NCC3CCOC3)c2)c2cc[nH]c2c1=O (stereo not drawn) [Example 77, 6-methyl-4-[5-(methylsulfonyl)-2-{3-[(tetrahydrofuran-3-ylmethyl)amino]phenoxy}phenyl]-1,6-dihydro-7H-pyrrolo[2,3-c]pyridin-7-one] |
| 128 | Cn1cc(-c2cc(S(C)(=O)=O)ccc2Oc2cccc(NCC3CC3)c2)c2cc[nH]c2c1=O [Example 80, 4-[2-{3-[(cyclopropylmethyl)amino]phenoxy}-5-(methylsulfonyl)phenyl]-6-methyl-1,6-dihydro-7H-pyrrolo[2,3-c]pyridin-7-one] |
